The conditions of series [1]: sum of five 0/1 risk factors, 0 (lack of risk) to 5 (very high multiple risk). The text has this: The last column corresponds to a risk level score for the safety of these molecules for use in oils such as turbine oils and their alleged cabin toxicity. […] A 0 value indicates a lack of risk, and a 5 value indicates a very high multiple risk. For each risk, a factor 0 or 1 is assigned based on whether the value is above or below a threshold.

For series [2] the following is noted: European Chemicals Agency website; cited from earlier work.
Series [3] addresses T1, BuChE from equine serum (eqBuChE) (Equus caballus, UniProt P81908).
T1 construct: The BuChE freeze-dried from equine serum (eqBuChE, Sigma Aldrich); purchased Sigma Aldrich; host or cells: equine serum (natural source)
As to the kind of experiment: biochemical. The series is classed as biochemical. The method, then: (§1) In the extent that the toxic activity of TCP especially involves its action on cholinesterases, the effect of the compounds used according to the invention, as well as comparative compounds, on two cholinesterases was studied. The required concentration values of each compound to inhibit 50% of the activity of two cholinesterases were measured.
(§2) The acetylthiocholine and butyrylthiocholine iodide, and 5,5-dithiobis (2-nitrobenzoic) acid (DTNB) were purchased from Sigma Aldrich (Steinheim, Germany).
(§3) In the procedure, 100 μL of 0.3 mM DTNB dissolved in phosphate buffer, pH 7.4, were added in 96-well plates, followed by 50 μL solution of the test compound and 50 μL enzyme (final 0.05 U). After 5 minutes of pre-incubation at 25° C., the reaction was initiated by injecting 50 μL of 0.1 mM acetyl or butyryl thiocholine iodide solution. The acetyl or butyryl thiocholine hydrolysis was followed by the formation of yellow 5-thio 2-nitrobenzoate anion as the product of the reaction of DTNB with the thiocholine released by the enzymatic hydrolysis of the acetyl or butyryl thiocholine, at a wavelength of 412 nm, using a microplate reader (Synergy 2, Biotek, Colmar, France). The compounds to be tested were dissolved to 5×10^−3M in analytical grade DMSO. Donepezil or tacrine were used as reference standards. The absorption increase rate at 412 nm was determined 4 minutes after the addition of the acetyl or butyryl thiocholine iodide solution. The tests were carried out with a blank containing all the compounds except the acetyl or butyryl thiocholine in order to take into account non-enzymatic reactions.
(§4) The percentage of inhibition due to the presence of the test compounds was calculated using the following expression: […]
(§5) wherein vi is the rate calculated in the presence of the inhibitor, and v0 is the enzymatic activity.
(§6) All the experiments were carried out in n=3.

For series [4], the target named is T2, human erythrocyte AChE (hAChE) (Homo sapiens, UniProt P22303).
T2 construct: The human erythrocyte AChE (hAChE, aqueous buffer solution); purchased Sigma Aldrich; host or cells: human erythrocytes (natural source)
T2 sequence (P22303 32-617 isoform P22303-2 limits assumed): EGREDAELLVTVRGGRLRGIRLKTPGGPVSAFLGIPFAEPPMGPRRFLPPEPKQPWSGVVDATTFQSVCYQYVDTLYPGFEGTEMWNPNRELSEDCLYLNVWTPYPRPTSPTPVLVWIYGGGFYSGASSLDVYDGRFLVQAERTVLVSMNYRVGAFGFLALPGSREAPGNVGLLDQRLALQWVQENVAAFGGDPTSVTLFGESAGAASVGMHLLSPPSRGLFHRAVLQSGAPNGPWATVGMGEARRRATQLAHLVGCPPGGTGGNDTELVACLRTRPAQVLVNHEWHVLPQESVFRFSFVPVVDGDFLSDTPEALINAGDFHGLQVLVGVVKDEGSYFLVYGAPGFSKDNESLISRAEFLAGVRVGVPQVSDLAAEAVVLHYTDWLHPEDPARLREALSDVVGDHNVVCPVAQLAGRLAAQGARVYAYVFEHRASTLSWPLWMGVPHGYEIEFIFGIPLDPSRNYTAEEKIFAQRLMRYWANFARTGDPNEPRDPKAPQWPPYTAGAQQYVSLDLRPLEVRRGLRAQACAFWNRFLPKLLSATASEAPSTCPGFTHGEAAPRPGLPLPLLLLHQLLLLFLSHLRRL
In words: biochemical. The format is biochemical. The protocol: as §1, §2, §3, §4, §5, §6

Setting [5] is: equine serum BuChE, Ellman method, 5 min pre-incubation at 25° C., n=3.

pIC50: −log10 of the molar value. Read-outs that look alike come from different tables or passages of the source.

These results are taken from patent publication US20230183592A1, “[…] ORGANO[…] AS NON-[…]-WEAR AGENTS” (priority 2020, published 2023).

For orientation: pIC50 means the negative decadic logarithm of the IC50, by convention in mol/L. The IC50 is the midpoint of a concentration-inhibition curve.

T1 sequence (P81908 whole entry): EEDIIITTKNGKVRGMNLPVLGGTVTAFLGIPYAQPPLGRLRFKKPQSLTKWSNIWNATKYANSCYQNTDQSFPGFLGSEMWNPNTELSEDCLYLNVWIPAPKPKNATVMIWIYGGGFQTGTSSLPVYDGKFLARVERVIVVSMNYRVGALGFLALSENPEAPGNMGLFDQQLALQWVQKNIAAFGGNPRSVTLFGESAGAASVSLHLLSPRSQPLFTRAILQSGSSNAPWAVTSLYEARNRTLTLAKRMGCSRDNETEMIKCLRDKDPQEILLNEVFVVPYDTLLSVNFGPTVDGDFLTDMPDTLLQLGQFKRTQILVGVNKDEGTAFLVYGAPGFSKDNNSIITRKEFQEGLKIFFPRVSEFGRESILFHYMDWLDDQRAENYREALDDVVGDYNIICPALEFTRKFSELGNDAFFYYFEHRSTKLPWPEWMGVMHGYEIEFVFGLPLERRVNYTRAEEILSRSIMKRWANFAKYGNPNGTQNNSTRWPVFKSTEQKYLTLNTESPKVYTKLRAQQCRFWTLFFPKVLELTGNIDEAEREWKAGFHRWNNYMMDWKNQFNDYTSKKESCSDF

In series [1], isononyl diphenylphosphate [Compound Q] yielded a Risk level of 4.

For Trixylyl phosphate [Compound E], the “ECHA's official data” value in series [2] is listed as “PBT* Reprotoxic”. In series [1], this compound had a Risk level of at least 2.

As for `O=P(Oc1ccccc1)(Oc1ccccc1)Oc1ccccc1` [Compound I1, tri phenyl phosphate], in series [2], the “ECHA's official data” value is given as “No CMR, no acute toxicity”. In addition, the negative-log IC50 (pIC50) in series [3] was 4.37; in series [4], 4.48. In addition, in series [1], the Risk level was found to be 4.

Turning to “isododecyl diphenylphosphate [Compound 4]”, the Risk level in series [1] worked out at 0.

As to `O=P(Oc1c(F)cccc1F)(Oc1c(F)cccc1F)Oc1c(F)cccc1F` [Compound F, Tri(2,6-difluorophenyl)phosphate], the Risk level in series [1] is at least 3.

On to Saligenin cresyl phosphate [Compound J], for which, in series [3] (setting [5]), the “IC50 eqBuChE” value was 0.7 µg/mL. In series [1], this compound came in with a Risk level of 4.

Regarding “Tri(4-isopropylbenzoate)phosphate [Compound G]”, in series [1], the Risk level came to 2.

Take `Cc1cccc(OP(=O)(Oc2cccc(C)c2)Oc2cccc(C)c2)c1` [Compound C, Tri(meta-cresyl)phosphate]: in series [1], the Risk level worked out at 5.

Consider `CC(C)CCCCCCCOP(=O)(Oc1ccccc1)Oc1ccccc1` [Compound 1, isodecyl diphenylphosphate], for which the pIC50 in series [3] was 4.03; in series [4] it was 4.42. Besides, the Risk level in series [1] is given as 0.

Consider `Cc1ccccc1OP(=O)(Oc1ccccc1C)Oc1ccccc1C` [Compound B, Tri(ortho-cresyl)phosphate], for which the Risk level in series [1] came out at 5.

As for `CCCCOC(=O)CC(SP(=S)(OCC(CC)CCCC)OCC(CC)CCCC)C(=O)OCCCC` (stereo not shown) [Compound N, Dibutyl [[bis[(2-ethylhexyl)oxy]phosphinothioyl]thio]succinate], in series [2], the “ECHA's official data” value is listed as “No CMR, no acute toxicity”. Further, the pIC50 was 4.72 in series [3] and 4.48 in series [4]. Further, the Risk level in series [1] was at least 1.

Turning to `CCCCC(CC)COP(=O)(Oc1ccccc1)Oc1ccccc1` (stereo not shown) [Compound A, 2-ethylhexyl diphenylphosphate], in series [2], the “ECHA's official data” value is recorded as “No CMR, no acute toxicity”. For the same compound, in series [1], the Risk level is listed as 4.

Take Tricresyl phosphate [Compound P]: the “ECHA's official data” value in series [2] is reported as “PBT* Reprotoxic”. Moreover, the “IC50 eqBuChE” value in series [3] (setting [5]) was determined as 0.7 µg/mL. In addition, the “IC50 hAChE” value in series [4] (human erythrocyte AChE, Ellman method, 5 min pre-incubation at 25° C., n=3) stood at 16.9 µg/mL. The compound also returned a Risk level in series [1] of 4.

`Cc1ccc(OP(=O)(Oc2ccc(C)cc2)Oc2ccc(C)cc2)cc1` [Compound D, Tri(para-cresyl)phosphate] came in with a Risk level in series [1] of 3.

Consider `CC(C)COP(=O)(OCC(C)C)OCC(C)C` [Compound L, Tri(isobutyl)phosphate], for which, in series [2], the “ECHA's official data” value is “No CMR, no acute toxicity”. For the same compound, the Risk level in series [1] is given as 4.

As for `CC(C)(C)c1ccc(OP(=O)(Oc2ccccc2)Oc2ccc(C(C)(C)C)cc2)cc1` [Compound H, di(p-tertbutylphenyl)phenylphosphate], the Risk level in series [1] came out at 3.

As for `CCCCC(CC)COP(=O)(OCC(CC)CCCC)OCC(CC)CCCC` (stereo not shown) [Compound M, Tris(2-ethylhexyl)phosphate], in series [2], the “ECHA's official data” value is “No CMR, no acute toxicity”. The IC50 in series [3] (equine serum BuChE, Ellman method, 5 min pre-incubation at 25° C., n=3, read-out: IC50 eqBuChE (converted)) was 279 µM; in series [4] (human erythrocyte AChE, Ellman method, 5 min pre-incubation at 25° C., n=3, read-out: IC50 hAChE (converted)) it was 28.1 µM. Further, in series [1], the Risk level is given as at least 2.

Consider `CC(C)(C)c1ccc(OP(=O)(Oc2ccc(C(C)(C)C)cc2)Oc2ccc(C(C)(C)C)cc2)cc1` [Compound I2, Tri(p-tert-butylphenyl)phosphate], for which, in series [1], the Risk level is given as 3.

`NP(=O)(Oc1ccccc1)Oc1ccccc1` [Compound K, Diphenyl phosphoroamidate] registered a Risk level in series [1] of 4.
